{"source": "patent US20230399358A1", "about": "“IMMUNOGLOBULIN PURIFICATION PEPTIDES AND THEIR USE” (North Carolina State University, priority 2019, published 2023)", "key": {"[1]": {"test_system": "human polyclonal IgG in CHO-S cell culture fluid", "assay": "Static purification of IgG from CHO cell culture supernatant on peptide-Toyopearl resins, SDS-PAGE densitometry", "conditions": "Gel B, lane E (pH 4)"}, "[2]": {"test_system": "human polyclonal IgG in CHO-S cell culture fluid", "assay": "Static purification of IgG from CHO cell culture supernatant on peptide-Toyopearl resins, SDS-PAGE densitometry", "conditions": "for % Purity (IgG over total proteins): lane FT (flow-through); for % Purity (IgG over total eluted proteins): lane R (pH 2.5)", "protocol": "(§1) Measurement of IgG binding by peptide-based chromatographic adsorbents: For initial studies, 35 mg of MWRGWQ (SEQ ID NO:2)-Toyopearl, RHLGWF (SEQ ID NO:3)-Toyopearl, WQRHGI (SEQ ID NO:1)-Toyopearl, GWLHQR (SEQ ID NO:4)-Toyopearl, and HWRGWV (SEQ ID NO:18)-Toyopearl (control) resins were equilibrated in PBS pH 7.4, reaching a swollen volume of 0.1 mL, and subsequently incubated with 1 mg/mL IgG in 0.205 mg/mL CHO cell culture supernatant for 30 minutes. The resins were subsequently washed several times with PBS to remove non-specifically bound proteins. Elution was performed with 100 mM glycine buffer pH 2.5. Flowthrough and elution fractions were collected and analyzed by SDS PAGE under reducing conditions. The resulting gels were stained with Coomassie staining. Further, 25 mg of the adsorbents MWRGWQ (SEQ ID NO:2)-Toyopearl, NIFRGWQ (SEQ ID NO:21)-Toyopearl, MWRAWQ (SEQ ID NO:5)-Toyopearl, MWRGFQ (SEQ ID NO:7)-Toyopearl, MWRGWN (SEQ ID NO:22)-Toyopearl, (NorL) WRGWQ (SEQ ID NO:23)-Toyopearl, MGRGWQ (SEQ ID NO:24)-Toyopearl, MWRWQ (SEQ ID NO:6)-Toyopearl, MWRGGQ (SEQ ID NO:26)-Toyopearl, GWRGWQ (SEQ ID NO:8)-Toyopearl, WQRHGI (SEQ ID NO:1)-Toyopearl, WNRHGI (SEQ ID NO:12)-Toyopearl, WQRAGI (SEQ ID NO:28)-Toyopearl, WQRHAI (SEQ ID NO:11)-Toyopearl, WQRHGL (SEQ ID NO:9)-Toyopearl, FQRHGI (SEQ ID NO:29)-Toyopearl, and WQRHGV (SEQ ID NO:10)-Toyopearl resins were equilibrated in PBS pH 7.4, reaching a swollen volume of 0.1 mL, and subsequently incubated with 1 mg/mL IgG in PBS at pH 7.4 for 30 minutes. The amount of unbound IgG in the supernatant samples was quantified by Bradford assay and utilized to determine the IgG binding % by the peptide variants.\nCharacterization of IgG-binding peptide variants WQRHGI (SEQ ID NO:1), MWRGWQ (SEQ ID NO:2), RHLGWF (SEQ ID NO:3), and GWLHQR (SEQ ID NO:4) in competitive conditions: The four selected sequence variants were tested for their ability to purify human IgG from a CHO cell culture supernatant and found largely to mirror their in silico predictions. Even though they seemed to underperform in silico, RHLGWF (SEQ ID NO:3) and GWLHQR (SEQ ID NO:4) were tested alongside WQRHGI (SEQ ID NO:1) and MWRGWQ (SEQ ID NO:2) in these conditions in order to confirm their ability to bind IgG and examine their selectivity as predicted in silico. The feedstock was prepared by spiking human polyclonal IgG into a clarified null CHO-S cell culture fluid to obtain an IgG concentration of 1 mg/mL and a CHO HCP concentration of 0.205 mg/mL. An aliquot of 500 μL was loaded onto each peptide adsorbent in static conditions for 30 min. Following a washing step with PBS to remove loosely bound proteins, a first elution step was conducted using 0.1 M glycine buffer pH 2.5 to remove all bound proteins. Flow through fractions and pH 2.5 elution fractions were loaded neat and analyzed by SDS PAGE (FIGS. 6A-6B). The values of IgG purity in the eluted fractions were determined by densitometric analysis of the corresponding lanes on the gels, and are reported in Table 9."}, "[3]": {"test_system": "IgG", "conditions": "optimized adsorbents, Menegatti et al. 2016; cited from earlier work"}, "[4]": {"test_system": "host cell protein (HCP)", "conditions": "literature value; cited from earlier work"}, "[5]": {"test_system": "human IgG", "conditions": "reference [77], cited from earlier work"}, "[6]": {"assay": "Solubility of free peptide in buffer (preparation for ITC)", "format": "physicochemical", "protocol": "MWRGWQ (SEQ ID NO:2) was unable to be examined via ITC. Peptide MWRGWQ (SEQ ID NO:2) was not soluble in pH 7.4 buffer, likely due to self-associative properties. MWRGWQ (SEQ ID NO:2) was found soluble in highly acidic buffer, but ITC results were confounded by the heat of mixing between acidic and neutral solutions. […] Attempts were made to raise the pH of buffer in which MWRGWQ (SEQ ID NO:2) was dissolved, but the peptide was seen to gel when the pH was raised above 5.\nMWRGWQ's (SEQ ID NO:2) binding affinity could not be examined using ITC. […] However, when the peptide was dissolved in a lower pH solution, the heat of mixing between the different pH solutions was extremely high, and peptide-peptide or peptide-IgG binding energies upon titration became difficult to differentiation from the heat of mixing in ITC experiments."}, "[7]": {"test_system": "human IgG", "format": "binding", "protocol": "as §1\nA limited library of residue-by-residue changes confirmed the importance of each residue in peptides WQRHGI (SEQ ID NO:1) and MWRGWQ (SEQ ID NO:2) in reducing the binding energy between the peptide and the IgG target. […] This was accomplished by designing and constructing an ensemble of 20 variants of peptides WQRHGI (SEQ ID NO:1) and MWRGWQ (SEQ ID NO:2). Selected residues in positions 1-6 were mutated. The peptide variants were synthesized directly on Toyopearl AF-amino-650M resin via Fmoc/tBu chemistry. The resulting adsorbents were incubated with a solution of human IgG at 2 mg/mL at a ratio of 1 mL of resin per 3.5 mL of solution for 30 min at room temperature. The residual concentration of IgG in solution was determined by Bradford concentration assay of the supernatants and utilized to calculate the amounts of bound IgG per volume of resin; Table 7 reports the % binding, defined as mg IgG bound by variant/mg IgG bound by original sequence (either WQRHGI (SEQ ID NO:1) or MWRGWQ (SEQ ID NO:2))×100%, of each sequence variant."}, "[8]": {"test_system": "human polyclonal IgG in CHO cell culture fluid", "assay": "Chromatographic purification of IgG from CHO cell culture fluid on WorkBeads resin, SDS-PAGE densitometry", "conditions": "FIG. 8, reduced ligand density 35.2 milliequivalents/mL", "protocol": "Purification of IgG from CHO Cell culture fluids using MWRGWQC (SEQ ID NO:31)- and WQRHGIC (SEQ ID NO:30)—Workbeads: A volume of 0.1 mL of resin was packed in a PEEK microbore column, installed on a Waters 2695 unit, and equilibrated with PBS, pH 7.4. All chromatographic buffers were filtered through a compatible 0.2 μm filter prior to use. A volume of 100 μL of solution of human polyclonal IgG at 1 mg/mL in a CHO cell culture fluid at 0.205 mg/mL CHO HCPs was injected in the column at 0.02 mL/min (RT: 5 minutes). Following injection, the resin was washed with PBS at 0.2 mL/min and, subsequently, with 100 mM NaCl in PBS at 0.2 mL/min. Elution was then conducted with […] pH 4. An acidic cleaning step was conducted in 0.1 M glycine pH 2.5 to remove any proteins still bound. The absorbance of the effluent was monitored by UV/Vis spectrophotometry at 280 nm. Fractions were collected and adjusted to neutral pH. Total protein concentration was measured by BCA assay. All collected fractions were also analyzed via SDS PAGE under reducing conditions. The gel was stained by silver staining, and the overall IgG purity in the eluted fractions was determined by densitometric analysis using ImageJ software. Finally, the feed and eluted fractions were analyzed using a CHO-specific ELISA kit to determine the log removal value (LRV) of HCPs.\nThe high purity of the recovered IgG using WQRHGI (SEQ ID NO:1), as calculated by densitometric analysis (100%) was confirmed by the HCP LRV value of 2.7, thus indicating WQRHGI (SEQ ID NO:1) has purification abilities similar to Protein A. This is a remarkable result. […] The collected chromatographic fractions were analyzed by SDS-PAGE (FIG. 7B, silver stained to highlight diluted CHO HCPs). The % values of IgG in the fractions (expressed as a ratio of IgG concentration over total protein (e.g., IgG+CHO HCPs)) were calculated by densitometric analysis of the lanes in the SDS gel and were as follows: Control (C), 0.00%; Load (L) 59.77%; Flowthrough (FT), 0.00%; Elution 1 (El1), 100.00%; Elution 2 (El2), 0.00%; IgG 93.30%. […]"}, "[9]": {"biological_target": "human polyclonal IgG (human)", "assay": "ITC at 25 C, peptide titrated into polyclonal IgG in PBS pH 7.4, independent single-site fit"}, "[10]": {"biological_target": "human polyclonal IgG (human)", "assay": "batch incubation of peptide-Toyopearl resin with human IgG, Bradford of unbound IgG; mg IgG bound relative to WQRHGI (the reference itself)"}, "[11]": {"biological_target": "human polyclonal IgG (human)", "assay": "breakthrough curve, 20 mg/mL IgG in PBS on a peptide-WorkBeads column, residence time 2 min"}, "[12]": {"biological_target": "human polyclonal IgG (human)", "assay": "batch adsorption isotherm of IgG on peptide-WorkBeads resin, BCA of unbound IgG, Langmuir fit (KD(Solid))"}, "[13]": {"biological_target": "human polyclonal IgG (human)", "assay": "breakthrough curve, 20 mg/mL IgG in PBS on a peptide-WorkBeads column, residence time 5 min"}, "[14]": {"biological_target": "human polyclonal IgG (human)", "assay": "batch adsorption isotherm of IgG on peptide-WorkBeads resin, BCA of unbound IgG, Langmuir fit"}, "[15]": {"biological_target": "human polyclonal IgG (human)", "assay": "batch incubation of peptide-Toyopearl resin with human IgG, Bradford of unbound IgG; mg IgG bound relative to MWRGWQ (the reference itself)"}}, "note": "“Also recorded” adds a separate entry of the source. Read-outs that look alike come from different tables or passages of the source. No end group written: not given here.", "data": [{"molecule": "GWLHQR", "values": [{"measurement": "% Purity (IgG over total eluted proteins)", "setting": "[1]", "value": 100, "unit": "%"}, {"measurement": "% Purity (IgG over total proteins)", "setting": "[2]; Gel B", "value": 57.02, "unit": "%"}, {"measurement": "% Purity (IgG over total eluted proteins)", "setting": "[2]; Gel B", "value": 0.00, "unit": "%"}, {"measurement": "IgG yield", "setting": "[2]; competitive conditions, CHO cell culture supernatant", "value": "lower than expected IgG yields; also recorded: lower IgG yield"}]}, {"molecule": "HWRGWV [reference compound]", "values": [{"measurement": "binding capacity", "setting": "[3]", "value": "up to 91.5 mg of IgG per mL of adsorbent"}, {"measurement": "HCP LRV", "setting": "[4]", "value": 1.6}, {"measurement": "% Purity (IgG over total proteins)", "setting": "[2]; Gel A", "value": 100.00, "unit": "%"}, {"measurement": "% Purity (IgG over total eluted proteins)", "setting": "[2]; Gel A", "value": 97.81, "unit": "%"}, {"measurement": "% Purity (IgG over total proteins)", "setting": "[2]; Gel B", "value": 45.40, "unit": "%"}, {"measurement": "% Purity (IgG over total eluted proteins)", "setting": "[2]; Gel B", "value": 93.79, "unit": "%"}, {"measurement": "DBC at 10% breakthrough", "setting": "[5]; residence time 2 min", "value": 25, "unit": "mg IgG/mL resin"}, {"measurement": "DBC at 10% breakthrough", "setting": "[5]; residence time 5 min", "value": 36, "unit": "mg IgG/mL resin"}]}, {"molecule": "MWRGWQ [MWRGWQ]", "values": [{"measurement": "solubility", "setting": "[6]; highly acidic buffer / lower pH", "value": "soluble; also recorded: could be dissolved"}, {"measurement": "solubility", "setting": "[6]; pH 7.4 buffer / neutral pH", "value": "not soluble; also recorded: tended to gel"}, {"measurement": "% Binding (mg IgG bound by variant/mg IgG bound by original sequence × 100%)", "setting": "[7]", "value": 100.00, "unit": "%"}]}, {"molecule": "Protein A: Protein A adsorbent, industrial standard for mAb capture", "values": [{"measurement": "% Purity (IgG over total protein)", "setting": "[8]; elution lane (pH 4)", "value": 100.00, "unit": "%"}, {"measurement": "% Purity (IgG over total protein)", "setting": "[8]; lane FT", "value": 55.74, "unit": "%"}, {"measurement": "HCP LRV", "setting": "[4]", "value": "2.5-3.0"}]}, {"molecule": "WQRHGI", "note": "[WQRHGI (SEQ ID NO:1)]", "values": [{"measurement": "Kd", "setting": "[9]", "value": 58.8, "unit": "µM"}, {"measurement": "stoichiometry (N, interacting peptides per IgG) (peptides per IgG)", "setting": "[9]", "value": 10}, {"measurement": "% Binding", "setting": "[10]", "value": 100, "unit": "%"}]}, {"molecule": "MWRGWQC(iodoacetyl‑activated TREN WorkBeads resin) (not fully specified)", "note": "[MWRGWQC (SEQ ID NO:31)-WorkBeads]", "values": [{"measurement": "DBC (dynamic binding capacity at 10% breakthrough) (mg IgG/mL resin)", "setting": "[11]", "value": 44}, {"measurement": "Kd", "setting": "[12]", "value": 8.1, "unit": "µM"}, {"measurement": "DBC (dynamic binding capacity at 10% breakthrough) (mg IgG/mL resin)", "setting": "[13]", "value": 55.3}, {"measurement": "Qmax (mg IgG/mL resin)", "setting": "[14]", "value": 57.5}]}, {"molecule": "WQRHGIC(iodoacetyl‑activated TREN WorkBeads resin) (not fully specified)", "note": "[WQRHGIC (SEQ ID NO:30)-WorkBeads]", "values": [{"measurement": "DBC (dynamic binding capacity at 10% breakthrough) (mg IgG/mL resin)", "setting": "[11]", "value": 33.6}, {"measurement": "Kd", "setting": "[12]", "value": 3.2, "unit": "µM"}, {"measurement": "DBC (dynamic binding capacity at 10% breakthrough) (mg IgG/mL resin)", "setting": "[13]", "value": 43.8}, {"measurement": "Qmax (mg IgG/mL resin)", "setting": "[14]", "value": 52.6}]}, {"molecule": "MWRGWQ", "note": "[MWRGWQ (SEQ ID NO:2)]", "values": [{"measurement": "% Binding", "setting": "[15]", "value": 100, "unit": "%"}]}]}
